Experimental data reported in ChEMBL document CHEMBL5724914, “Linking interpersonal differences in gut microbiota composition and drug biotransformation activity” (2024).

Assay: (§1) The drug is tested on Z-029 corresponding to rat gut metagenome with ENA study accession number: PRJEB37062 and ENA sample accession number: ERS12561828 for biotransformation under anaerobic condition. The drug concentrations were measured over 9 timepoints collected between 0 and 24 hours of incubation by liquid-chromatography-coupled mass spectrometry (LC–MS)
Details: 2 µM
Further: call rule not given here.

Row | Bacterial Biotransformation | Structure (SMILES)
1 | Compound NOT metabolized | CN1CCC(OC(c2ccccc2)c2ccccc2)CC1
2 | Compound metabolized | CC1=C(CC(=O)O)c2cc(F)ccc2/C1=C\c1ccc([S+](C)[O-])cc1 (centres undefined)
3 | Compound NOT metabolized | CCOC(=O)[C@H](CCc1ccccc1)N[C@@H](C)C(=O)N1Cc2ccccc2C[C@H]1C(=O)O
4 | Compound NOT metabolized | CCN1CCCC1CNC(=O)c1cc(S(=O)(=O)CC)c(N)cc1OC (centres undefined) [AMISULPRIDE]

Assay: as §1, with “on Z-028” for “on Z-029”, “to mouse” for “to rat”, “number: ERS12561827” for “number: ERS12561828”
Details: 2 µM

Row | Bacterial Biotransformation | Structure (SMILES)
5 | Compound NOT metabolized | CN1CCC(OC(c2ccccc2)c2ccccc2)CC1
6 | Compound NOT metabolized | CC1=C(CC(=O)O)c2cc(F)ccc2/C1=C\c1ccc([S+](C)[O-])cc1 (centres undefined)
7 | Compound NOT metabolized | CCOC(=O)[C@H](CCc1ccccc1)N[C@@H](C)C(=O)N1Cc2ccccc2C[C@H]1C(=O)O
8 | Compound NOT metabolized | CCN1CCCC1CNC(=O)c1cc(S(=O)(=O)CC)c(N)cc1OC (centres undefined) [AMISULPRIDE]

Assay: as §1, with “on Z-022” for “on Z-029”, “to mouse” for “to rat”, “number: ERS12561821” for “number: ERS12561828”
Details: 2 µM

Row | Bacterial Biotransformation | Structure (SMILES)
9 | Compound NOT metabolized | CN1CCC(OC(c2ccccc2)c2ccccc2)CC1
10 | Compound NOT metabolized | CC1=C(CC(=O)O)c2cc(F)ccc2/C1=C\c1ccc([S+](C)[O-])cc1 (centres undefined)
11 | Compound NOT metabolized | CCOC(=O)[C@H](CCc1ccccc1)N[C@@H](C)C(=O)N1Cc2ccccc2C[C@H]1C(=O)O
12 | Compound NOT metabolized | CCN1CCCC1CNC(=O)c1cc(S(=O)(=O)CC)c(N)cc1OC (centres undefined) [AMISULPRIDE]

Assay: as §1, with “on Z-020” for “on Z-029”, “to rabbit” for “to rat”, “number: ERS12561819” for “number: ERS12561828”
Details: 2 µM

Row | Bacterial Biotransformation | Structure (SMILES)
13 | Compound NOT metabolized | CN1CCC(OC(c2ccccc2)c2ccccc2)CC1
14 | Compound NOT metabolized | CC1=C(CC(=O)O)c2cc(F)ccc2/C1=C\c1ccc([S+](C)[O-])cc1 (centres undefined)
15 | Compound NOT metabolized | CCOC(=O)[C@H](CCc1ccccc1)N[C@@H](C)C(=O)N1Cc2ccccc2C[C@H]1C(=O)O
16 | Compound NOT metabolized | CCN1CCCC1CNC(=O)c1cc(S(=O)(=O)CC)c(N)cc1OC (centres undefined) [AMISULPRIDE]

Assay: as §1, with “Z-007” for “Z-029”, “ERS12561807” for “ERS12561828”
Details: 2 µM

Row | Bacterial Biotransformation | Structure (SMILES)
17 | Compound NOT metabolized | CN1CCC(OC(c2ccccc2)c2ccccc2)CC1
18 | Compound NOT metabolized | CC1=C(CC(=O)O)c2cc(F)ccc2/C1=C\c1ccc([S+](C)[O-])cc1 (centres undefined)
19 | Compound NOT metabolized | CCOC(=O)[C@H](CCc1ccccc1)N[C@@H](C)C(=O)N1Cc2ccccc2C[C@H]1C(=O)O
20 | Compound NOT metabolized | CCN1CCCC1CNC(=O)c1cc(S(=O)(=O)CC)c(N)cc1OC (centres undefined) [AMISULPRIDE]

Assay: as §1, with “on WLS-240” for “on Z-029”, “to human” for “to rat”, “number: ERS12561773” for “number: ERS12561828”
Details: 2 µM

Row | Bacterial Biotransformation | Structure (SMILES)
21 | Compound metabolized | CN1CCC(OC(c2ccccc2)c2ccccc2)CC1
22 | Compound metabolized | CC1=C(CC(=O)O)c2cc(F)ccc2/C1=C\c1ccc([S+](C)[O-])cc1 (centres undefined)
23 | Compound metabolized | CCOC(=O)[C@H](CCc1ccccc1)N[C@@H](C)C(=O)N1Cc2ccccc2C[C@H]1C(=O)O
24 | Compound metabolized | CCN1CCCC1CNC(=O)c1cc(S(=O)(=O)CC)c(N)cc1OC (centres undefined) [AMISULPRIDE]

Assay: as §1, with “on WLS-220” for “on Z-029”, “to human” for “to rat”, “number: ERS12561769” for “number: ERS12561828”
Details: 2 µM

Row | Bacterial Biotransformation | Structure (SMILES)
25 | Compound metabolized | CN1CCC(OC(c2ccccc2)c2ccccc2)CC1
26 | Compound metabolized | CC1=C(CC(=O)O)c2cc(F)ccc2/C1=C\c1ccc([S+](C)[O-])cc1 (centres undefined)
27 | Compound metabolized | CCOC(=O)[C@H](CCc1ccccc1)N[C@@H](C)C(=O)N1Cc2ccccc2C[C@H]1C(=O)O
28 | Compound NOT metabolized | CCN1CCCC1CNC(=O)c1cc(S(=O)(=O)CC)c(N)cc1OC (centres undefined) [AMISULPRIDE]

Assay: as §1, with “on WLS-170” for “on Z-029”, “to human” for “to rat”, “number: ERS12561762” for “number: ERS12561828”
Details: 2 µM

Row | Bacterial Biotransformation | Structure (SMILES)
29 | Compound metabolized | CN1CCC(OC(c2ccccc2)c2ccccc2)CC1
30 | Compound metabolized | CCOC(=O)[C@H](CCc1ccccc1)N[C@@H](C)C(=O)N1Cc2ccccc2C[C@H]1C(=O)O
31 | Compound metabolized | CCN1CCCC1CNC(=O)c1cc(S(=O)(=O)CC)c(N)cc1OC (centres undefined) [AMISULPRIDE]

Assay: as §1, with “on WLS-077” for “on Z-029”, “to human” for “to rat”, “number: ERS12561750” for “number: ERS12561828”
Details: 2 µM

Row | Bacterial Biotransformation | Structure (SMILES)
32 | Compound NOT metabolized | CN1CCC(OC(c2ccccc2)c2ccccc2)CC1
33 | Compound metabolized | CC1=C(CC(=O)O)c2cc(F)ccc2/C1=C\c1ccc([S+](C)[O-])cc1 (centres undefined)
34 | Compound metabolized | CCOC(=O)[C@H](CCc1ccccc1)N[C@@H](C)C(=O)N1Cc2ccccc2C[C@H]1C(=O)O
35 | Compound NOT metabolized | CCN1CCCC1CNC(=O)c1cc(S(=O)(=O)CC)c(N)cc1OC (centres undefined) [AMISULPRIDE]

Assay: as §1, with “on WLS-052” for “on Z-029”, “to human” for “to rat”, “number: ERS12561747” for “number: ERS12561828”
Details: 2 µM

Row | Bacterial Biotransformation | Structure (SMILES)
36 | Compound NOT metabolized | CN1CCC(OC(c2ccccc2)c2ccccc2)CC1
37 | Compound metabolized | CC1=C(CC(=O)O)c2cc(F)ccc2/C1=C\c1ccc([S+](C)[O-])cc1 (centres undefined)
38 | Compound metabolized | CCOC(=O)[C@H](CCc1ccccc1)N[C@@H](C)C(=O)N1Cc2ccccc2C[C@H]1C(=O)O
39 | Compound NOT metabolized | CCN1CCCC1CNC(=O)c1cc(S(=O)(=O)CC)c(N)cc1OC (centres undefined) [AMISULPRIDE]

Details: human gut metagenome, 24 h, 2 µM

Row | Bacterial Biotransformation | Structure (SMILES)
40 | Compound NOT metabolized | CN1CCC(OC(c2ccccc2)c2ccccc2)CC1
41 | Compound metabolized | CC1=C(CC(=O)O)c2cc(F)ccc2/C1=C\c1ccc([S+](C)[O-])cc1 (centres undefined)
42 | Compound metabolized | CCOC(=O)[C@H](CCc1ccccc1)N[C@@H](C)C(=O)N1Cc2ccccc2C[C@H]1C(=O)O
43 | Compound NOT metabolized | CCN1CCCC1CNC(=O)c1cc(S(=O)(=O)CC)c(N)cc1OC (centres undefined) [AMISULPRIDE]

Details: human gut metagenome, 24 h, 2 µM
Remark: another data set of the same source

Row | Bacterial Biotransformation | Structure (SMILES)
44 | Compound NOT metabolized | CN1CCC(OC(c2ccccc2)c2ccccc2)CC1
45 | Compound metabolized | CC1=C(CC(=O)O)c2cc(F)ccc2/C1=C\c1ccc([S+](C)[O-])cc1 (centres undefined)
46 | Compound NOT metabolized | CCOC(=O)[C@H](CCc1ccccc1)N[C@@H](C)C(=O)N1Cc2ccccc2C[C@H]1C(=O)O
47 | Compound NOT metabolized | CCN1CCCC1CNC(=O)c1cc(S(=O)(=O)CC)c(N)cc1OC (centres undefined) [AMISULPRIDE]

Details: human gut metagenome, 24 h, 2 µM
Remark: another data set of the same source

Row | Bacterial Biotransformation | Structure (SMILES)
48 | Compound metabolized | CN1CCC(OC(c2ccccc2)c2ccccc2)CC1
49 | Compound NOT metabolized | CC1=C(CC(=O)O)c2cc(F)ccc2/C1=C\c1ccc([S+](C)[O-])cc1 (centres undefined)
50 | Compound metabolized | CCOC(=O)[C@H](CCc1ccccc1)N[C@@H](C)C(=O)N1Cc2ccccc2C[C@H]1C(=O)O
51 | Compound NOT metabolized | CCN1CCCC1CNC(=O)c1cc(S(=O)(=O)CC)c(N)cc1OC (centres undefined) [AMISULPRIDE]

Details: human gut metagenome, 24 h, 2 µM
Remark: another data set of the same source

Row | Bacterial Biotransformation | Structure (SMILES)
52 | Compound NOT metabolized | CN1CCC(OC(c2ccccc2)c2ccccc2)CC1
53 | Compound metabolized | CC1=C(CC(=O)O)c2cc(F)ccc2/C1=C\c1ccc([S+](C)[O-])cc1 (centres undefined)
54 | Compound metabolized | CCOC(=O)[C@H](CCc1ccccc1)N[C@@H](C)C(=O)N1Cc2ccccc2C[C@H]1C(=O)O
55 | Compound NOT metabolized | CCN1CCCC1CNC(=O)c1cc(S(=O)(=O)CC)c(N)cc1OC (centres undefined) [AMISULPRIDE]

Details: human gut metagenome, 24 h, 2 µM
Remark: another data set of the same source

Row | Bacterial Biotransformation | Structure (SMILES)
56 | Compound NOT metabolized | CN1CCC(OC(c2ccccc2)c2ccccc2)CC1
57 | Compound metabolized | CC1=C(CC(=O)O)c2cc(F)ccc2/C1=C\c1ccc([S+](C)[O-])cc1 (centres undefined)
58 | Compound metabolized | CCOC(=O)[C@H](CCc1ccccc1)N[C@@H](C)C(=O)N1Cc2ccccc2C[C@H]1C(=O)O
59 | Compound NOT metabolized | CCN1CCCC1CNC(=O)c1cc(S(=O)(=O)CC)c(N)cc1OC (centres undefined) [AMISULPRIDE]

Details: human gut metagenome, 24 h, 2 µM
Remark: another data set of the same source

Row | Bacterial Biotransformation | Structure (SMILES)
60 | Compound metabolized | CN1CCC(OC(c2ccccc2)c2ccccc2)CC1
61 | Compound metabolized | CC1=C(CC(=O)O)c2cc(F)ccc2/C1=C\c1ccc([S+](C)[O-])cc1 (centres undefined)
62 | Compound metabolized | CCOC(=O)[C@H](CCc1ccccc1)N[C@@H](C)C(=O)N1Cc2ccccc2C[C@H]1C(=O)O
63 | Compound metabolized | CCN1CCCC1CNC(=O)c1cc(S(=O)(=O)CC)c(N)cc1OC (centres undefined) [AMISULPRIDE]

Details: human gut metagenome, 24 h, 2 µM
Remark: another data set of the same source

Row | Bacterial Biotransformation | Structure (SMILES)
64 | Compound NOT metabolized | CN1CCC(OC(c2ccccc2)c2ccccc2)CC1
65 | Compound metabolized | CC1=C(CC(=O)O)c2cc(F)ccc2/C1=C\c1ccc([S+](C)[O-])cc1 (centres undefined)
66 | Compound metabolized | CCOC(=O)[C@H](CCc1ccccc1)N[C@@H](C)C(=O)N1Cc2ccccc2C[C@H]1C(=O)O
67 | Compound NOT metabolized | CCN1CCCC1CNC(=O)c1cc(S(=O)(=O)CC)c(N)cc1OC (centres undefined) [AMISULPRIDE]

Details: human gut metagenome, 24 h, 2 µM
Remark: another data set of the same source

Row | Bacterial Biotransformation | Structure (SMILES)
68 | Compound NOT metabolized | CN1CCC(OC(c2ccccc2)c2ccccc2)CC1
69 | Compound metabolized | CC1=C(CC(=O)O)c2cc(F)ccc2/C1=C\c1ccc([S+](C)[O-])cc1 (centres undefined)
70 | Compound metabolized | CCOC(=O)[C@H](CCc1ccccc1)N[C@@H](C)C(=O)N1Cc2ccccc2C[C@H]1C(=O)O
71 | Compound NOT metabolized | CCN1CCCC1CNC(=O)c1cc(S(=O)(=O)CC)c(N)cc1OC (centres undefined) [AMISULPRIDE]

Details: human gut metagenome, 24 h, 2 µM
Remark: another data set of the same source

Row | Bacterial Biotransformation | Structure (SMILES)
72 | Compound metabolized | CN1CCC(OC(c2ccccc2)c2ccccc2)CC1
73 | Compound metabolized | CC1=C(CC(=O)O)c2cc(F)ccc2/C1=C\c1ccc([S+](C)[O-])cc1 (centres undefined)
74 | Compound metabolized | CCOC(=O)[C@H](CCc1ccccc1)N[C@@H](C)C(=O)N1Cc2ccccc2C[C@H]1C(=O)O
75 | Compound metabolized | CCN1CCCC1CNC(=O)c1cc(S(=O)(=O)CC)c(N)cc1OC (centres undefined) [AMISULPRIDE]

Details: human gut metagenome, 24 h, 2 µM
Remark: another data set of the same source

Row | Bacterial Biotransformation | Structure (SMILES)
76 | Compound NOT metabolized | CN1CCC(OC(c2ccccc2)c2ccccc2)CC1
77 | Compound metabolized | CC1=C(CC(=O)O)c2cc(F)ccc2/C1=C\c1ccc([S+](C)[O-])cc1 (centres undefined)
78 | Compound metabolized | CCOC(=O)[C@H](CCc1ccccc1)N[C@@H](C)C(=O)N1Cc2ccccc2C[C@H]1C(=O)O
79 | Compound metabolized | CCN1CCCC1CNC(=O)c1cc(S(=O)(=O)CC)c(N)cc1OC (centres undefined) [AMISULPRIDE]
